{"source": "patent US11633420B2", "about": "“Method of treating leukemia” (Epizyme, Inc., priority 2012, dated 2023)", "key": {"[1]": {"test_system": "MV4;11 (MLL-AF4) cells", "test": "In vitro anti-proliferative assay, MV4;11", "format": "cell-based, human", "settings": "up to 14 days", "description": "(§1) In Vitro Anti-Proliferative Assay. The potency and selectivity of the anti-proliferative activity of the compounds of the present invention were assessed using a panel of MLL-rearranged and non-MLL-rearranged human leukemia cell lines. The MLL-rearranged panel included cell lines derived from ALL, AML and biphenotypic leukemias harboring MLL-AF4, MLL-AF9 or MLL-ENL fusions. These cell lines recruit DOT1L.\n(§2) Exponentially growing cells were plated, in triplicate, in 96-well plates at a density of 3×10^4 cells/well in a final volume of 150 μl. […] Anti-proliferative activity was determined by cell viability measurements every 3-4 days for up to 14 days."}, "[2]": {"test_system": "MOLM-13 (MLL-AF9) cells", "test": "In vitro anti-proliferative assay, MOLM-13", "format": "cell-based, human", "settings": "up to 14 days", "description": "as §1, §2"}, "[3]": {"test_system": "KOPN-8 (MLL-ENL) cells", "test": "In vitro anti-proliferative assay, KOPN-8", "format": "cell-based, human", "settings": "up to 14 days", "description": "as §1, §2"}, "[4]": {"test_system": "EOL-1 cells (MLL-PTD)", "test": "In vitro anti-proliferative assay, EOL-1", "format": "cell-based", "settings": "Homo sapiens, EOL1, 336 h; EOL-1 (MLL-PTD), up to 14 days", "description": "as §1, §2"}, "[5]": {"test_system": "Jurkat cells (non-MLL-rearranged)", "test": "In vitro anti-proliferative assay, Jurkat", "format": "cell-based, human", "settings": "up to 14 days", "description": "as §1, §2"}, "[6]": {"test_system": "HL-60 cells (non-MLL-rearranged)", "test": "In vitro anti-proliferative assay, HL-60", "format": "cell-based, human", "settings": "HL-60, up to 14 days", "description": "as §1, §2"}, "[7]": {"test_system": "MV4-11 xenograft tumors", "test": "In vivo anti-proliferative assay, mouse xenograft model of MLL-rearranged leukemia", "settings": "21 days", "description": "In Vivo Anti-Proliferative Assay. The in vivo anti-tumor activity of the compounds of the present invention were assessed in a mouse xenograft model of MLL-rearranged leukemia. Four groups of 20 (Groups 1, 3, 4 and 5), and one group of 8 (Group 2) female nude mice (average weight of 0.023 kg) bearing MV4-11 xenograft tumors of sizes ranging from 80-120 mm^3 were implanted subcutaneously with minipumps (Alzet Model 2001). Group 1 received vehicle only from the pump. Group 2 received vehicle only from the pump plus ip injections tid (8 hours apart) of vehicle. […] Pumps were designed to last for 7 days and were exchanged twice to give total infusion duration of 21 days exposure. […] Blood samples were taken from Group 3 on days 7 and 14 at the following time points (3 animals per time point): 5 minutes pre-ip dose, and 15 min, 30 min, 1, 2, and 4 hours post ip dose. On day 21 three hours after the last ip injection, a single blood sample was taken from Group 3. Tumor size was measured every 4 days. After 21 days the study was terminated, and mean TGI calculated."}}, "data": [{"smiles": "CC(C)N(C[C@H]1O[C@@H](n2cnc3c(N)ncnc32)[C@H](O)[C@@H]1O)[C@H]1C[C@@H](CCc2nc3cc(C(C)(C)C)ccc3[nH]2)C1", "note": "[Compound 2, (2R,3R,4S,5R)-2-(6-amino-9H-purin-9-yl)-5-((((1r,3S)-3-(2-(5-(tert-butyl)-1H-benzo[d]imidazol-2-yl)ethyl)cyclobutyl)(isopropyl)amino)methyl)tetrahydrofuran-3,4-diol]", "values": [{"measurement": "anti-proliferative activity (IC50)", "setting": "[1]", "value": "potent nanomolar anti-proliferative activity"}, {"measurement": "anti-proliferative activity (IC50)", "setting": "[2]", "value": "potent nanomolar anti-proliferative activity"}, {"measurement": "anti-proliferative activity (IC50)", "setting": "[3]", "value": "potent nanomolar anti-proliferative activity"}, {"measurement": "IC50", "setting": "[4]", "value": 11, "unit": "nM"}, {"measurement": "anti-proliferative activity", "setting": "[5]", "value": "no activity"}, {"measurement": "anti-proliferative activity", "setting": "[6]", "value": "no activity"}, {"measurement": "TGI compared to controls", "setting": "[7]; 56 mg/kg/day minipump, non-statistically significant", "value": 43, "unit": "%"}, {"measurement": "TGI compared to controls", "setting": "[7]; 112 mg/kg/day minipump, non-statistically significant", "value": 38, "unit": "%"}, {"measurement": "TGI compared to controls", "setting": "[7]; Group 3: 112 mg/kg/day minipump plus ip 20 mg/kg tid (172 mg/kg/day), statistically significant", "value": "> 70", "unit": "%"}]}]}
